Results from patent publication US11149071B2, “Fusion protein Slit2D2(C386S)-HSA and use thereof in prevention and/or treatment of lung inflammation” (Asclepius (Suzhou) Technology Company Group Co., Ltd., priority 2017, dated 2021).

What was measured:
[1] = system: lipopolysaccharide-induced lung injury; experiment: rat model of acute lung injury induced by airway infusion of LPS; differential cell counts in BALF; assay type: in vivo, Wistar rat
Method: Acute lung injury (ALI) is a systemic uncontrolled inflammatory response caused by various direct and indirect injury factors, accompanied by alveolar epithelial cells and capillary endothelial cell injury, its pathogenesis is still unclear, and there is still no effective treatment means. A rat model with airway infusion of lipopolysaccharide (LPS) is a commonly used animal model. In this study, airway infusion of LPS induced acute lung injury in rats. The animals were injected compounds via tail vein. After four hours, lung lavage and bronchoalveolar lavage fluid were collected, and differential cell were counts and measured to represent the efficacy of test compounds in preventing lipopolysaccharide-induced lung injury.
Except for group 1, all other groups were received pulmonary perfusion of lipopolysaccharide. Animals were anesthetized by 3-5% isoflurane, and 100 μl of LPS solution (1 mg/ml) was introduced into rat trachea with a micro-atomizer intubation, and after 4 hours, the animals were killed with chloral hydrate (750 mg/kg). The lungs were gently perfused three times in situ with 4 ml of PBS+1% albumin. After lavage, bronchoalveolar lavage fluid (BALF) was preserved in ice, and then the number of eosinophils (EOS), macrophages (Mac), neutrophils (Neu), lymphocytes (Lym) and the total number of cells were measured.

mouse models of asthma = mouse models of asthma (ovalbumin sensitization and aerosol challenge); BALF cell counts, Penh, BALF cytokines; assay type: in vivo, BALB/c mice
Method: On the first day and the 14th day of the experiment, the asthma models were sensitized by intraperitoneal injection, and the asthma group was given sensitization solution containing 20 μg of ovalbumin and 2 mg of alum suspension each time.
3.3.2 On the days 28, 29 and 30, the mice of 2-4 groups were stimulated with aerosol, which included dissolving 100 mg OVA in 10 ml PBS and adding 5 μl Triton X-100, and atomized by atomizing inhalation facility (Buxco) for 30 minutes, and then the nebulizer was turned off. Finally, the mice were kept in the inhalation box for additional 7 minutes, and following by being taken out. The negative control mice were exposed in aerosolized PBS for 30 minutes.
Group 1 (PBS control group) were injected intraperitoneally with PBS at 2 hours before PBS sensitization on the days 28, 29 and 30. Group 2 (OVA control group) were injected intraperitoneally with PBS at 2 hours before OVA sensitization on the days 28, 29 and 30. Group 3 were injected intraperitoneally with ZD018 at 2 hours before OVA sensitization on the days 28, 29 and 30. Group 4 were intragastrically administrated with dexamethasone at 2 hours before OVA sensitization on the days 28, 29 and 30.
On the 31st (24 hours after the last challenge), the Penh of mice were detected with a Buxco mouse non-invasive pulmonary function instrument. The change of Penh was determined after atomization stimulating of 300 μl doubling concentration of methacholine (Mch). The stimulating concentrations from low to high were 0, 0.78, 1.56, 3.125, 6.25, 12.5, 25 and 50 g/L, respectively. The mean value of Penh was recorded at each stimulating concentration level of Mch. The Penh value at each stimulating concentration of Mch was converted to a percentage of the Penh value at the time of the stimulating normal saline (The Penh value stimulated by Mch/The Penh value stimulated by normal saline, 100%), and represented by penh %, which was used as an evaluation index for mice airway response.
3.5 The observation of airway inflammation: the cytological examination of bronchoalveolar lavage and bronchoalveolar lavage fluid (BALF).
3.6 IL-13 and IL-5 cytokine levels in bronchoalveolar lavage fluid (BALF) were tested with Elisa Kit (R&D, USA).

[2] = test doses of 5 mg/kg, 1 mg/kg and 0.2 mg/kg i.v. 3 hours before LPS perfusion, BALF 4 hours after LPS, compared with the model group (FIG. 4)
[3] = ZD018 1 mg/kg i.p. 2 hours before OVA challenge on days 28, 29 and 30 (FIG. 6)

Substance: Slit2D2(C386S)-HSA: recombinant fusion protein of Slit2 D2 domain (cysteine at position 386 mutated to serine) and HSA, SEQ ID NO: 2
- efficacy compared with Slit2D2-HSA recombinant protein ([1]; both at 5 mg/kg dose i.v. 3 hours before LPS perfusion (FIG. 4)): superior to Slit2D2-HSA recombinant protein
- increase of cell number (total number of cells in BALF) [1, 2]: significantly inhibited
- number of neutrophils in bronchoalveolar lavage fluid [1, 2]: significantly controlled
- accumulation of eosinophils in alveolar fluid (BALF) (mouse models of asthma; ZD018 1 mg/kg i.p. 2 hours before OVA challenge on days 28, 29 and 30 (FIG. 5)): significantly inhibit
- accumulation of lymphocytes in alveolar fluid (BALF) (mouse models of asthma; [3]): inhibit
- accumulation of neutrophils in alveolar fluid (BALF) (mouse models of asthma; [3]): inhibit
- IL-5 cytokine level in bronchoalveolar lavage fluid (BALF) (mouse models of asthma; ZD018 1 mg/kg i.p., Elisa Kit (FIG. 8)): inhibit
- IL-13 cytokine level in bronchoalveolar lavage fluid (BALF) (mouse models of asthma; ZD018 1 mg/kg i.p., Elisa Kit (FIG. 9)): inhibit
- enhanced pause (Penh) index stimulated by methacholine (Mch) (mouse models of asthma; ZD018 1 mg/kg i.p., day 31, 24 hours after the last challenge, Mch 0-50 g/L, compared with control group G2 (FIG. 7)): effectively inhibit
